Test results taken from patent US12065445B2, “CDK2 inhibitors and methods of using the same” (Cedilla Therapeutics, Inc., priority 2021, dated 2024).

Test system: Kuramochi cells
Experiment: BrdU Cell Proliferation Assay
Assay type: cell-based
Conditions: read-out: BrdU - KURAMOCHI.1: IC50
How it was run: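 Signal is 450 nm absorbance from a peroxidase anti-BrdU ELISA after a 1-hour BrdU label, background-subtracted and normalized to DMSO-treated wells. Kuramochi cells (2,000 per well) had been exposed to compound for 4 days. Dosing used a 10-point dose response in 3-fold steps.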

CNC(=O)[C@@H](NC(=O)[C@H]1CN(C(=O)c2cnn(Cc3ccccc3)c2)CC12CN(C(=O)C1(F)CC1)C2)[C@@H](C)OCc1ccccc1 [I-71B]
IC50: > 10 µM

CC1(C)C[C@@H]1C(=O)N1CC2(CN(C(=O)c3cnn(Cc4ccccc4)c3)C[C@H]2C(=O)N[C@H]2CCCN(CC3CCCCC3)C2)C1 [I-183]
IC50: > 10 µM

CNC(=O)[C@@H](NC(=O)[C@H]1CN(Cc2cn[nH]c2)CC12CN(C(=O)[C@H]1CC1(C)C)C2)[C@@H](C)OCc1ccccc1 [I-50B]
IC50: > 10 µM

CNC(=O)[C@@H](NC(=O)[C@H]1CN(C(=O)c2cnn(Cc3ccccc3)c2)CC12CN(C(=O)C(C)(C)C)C2)[C@@H](C)OCc1ccccc1 [I-65B]
IC50: > 10 µM

COCC1(NC(=O)[C@H]2CN(C(=O)c3cnn(Cc4ccccc4)c3)CC23CN(C(=O)[C@H]2CC2(C)C)C3)CC1 [I-250]
IC50: > 10 µM

CNC(=O)[C@@H](NC(=O)[C@@H]1CN(C(=O)c2c[nH]c3ccccc23)CC12CN(C(=O)[C@H]1CC1(C)C)C2)[C@@H](C)OCc1ccccc1 [I-72A]
IC50: > 10 µM

CNC(=O)[C@@H](NC(=O)[C@@H]1CN(C(=O)c2nccs2)CC12CN(C(=O)[C@H]1CC1(C)C)C2)[C@@H](C)OCC1CCCCC1 [I-169]
IC50: > 10 µM

CNC(=O)[C@@H](NC(=O)[C@H]1CN(C(=O)c2cnco2)CC12CN(C(=O)[C@H]1CC1(C)C)C2)[C@@H](C)OCc1ccccc1 [I-39B]
IC50: > 10 µM

CNC(=O)[C@H](COCc1ccccc1)NC(=O)[C@H]1CN(C(=O)c2cnn(Cc3ccccc3)c2)CC12CN(C(=O)C(C)(C)C)C2 [I-100B]
IC50: > 10 µM

CNC(=O)[C@@H](NC(=O)[C@H]1CN(C(=O)c2cnn(CC3CCOCC3)c2)CC12CN(C(=O)[C@H]1CC1(C)C)C2)[C@@H](C)OCc1ccccc1 [I-95B]
IC50: > 10 µM

CNC(=O)[C@@H](NC(=O)[C@H]1CN(C(=O)c2cnn(CC3CC3)c2)CC12CN(C(=O)CC1CC1)C2)[C@@H](C)OCc1ccccc1 [I-53B]
IC50: > 10 µM

CNC(=O)[C@@H](NC(=O)[C@@H]1CN(C(=O)c2cnn(Cc3ccccc3)c2)CC12CN(C(=O)[C@H]1CC1(C)C)C2)[C@@H](C)OCC1CCC1 [I-144A]
IC50: > 10 µM

CNC(=O)[C@@H](NC(=O)[C@@H]1CN(C(=O)c2cnn(Cc3ccccc3)c2)CC12CN(C(=O)[C@H]1CC1(C)C)C2)C(C)(C)S(=O)(=O)Cc1ccccc1 [I-199, (S)-6-(1-benzyl-1H-pyrazole-4-carbonyl)-N—((R)-3-(benzylsulfonyl)-3-methyl-1-(methylamino)-1-oxobutan-2-yl)-2-((S)-2,2-dimethylcyclopropane-1-carbonyl)-2,6-diazaspiro[3.4]octane-8-carboxamide]
IC50: > 10 µM

CNC(=O)[C@@H](NC(=O)[C@H]1CN(C(=O)c2cncs2)CC12CN(C(=O)[C@H]1CC1(C)C)C2)[C@@H](C)OCc1ccccc1 [I-24B]
IC50: > 10 µM

CNC(=O)[C@@H](NC(=O)[C@@H]1CN(Cc2cnc[nH]2)CC12CN(C(=O)[C@H]1CC1(C)C)C2)[C@@H](C)OCc1ccccc1 [I-77A, (S)-6-((1H-imidazol-5-yl)methyl)-N-((2S,3R)-3-(benzyloxy)-1-(methylamino)-1-oxobutan-2-yl)-2-((S)-2,2-dimethylcyclopropane-1-carbonyl)-2,6-diazaspiro[3.4]octane-8-carboxamide]
IC50: > 10 µM

CC1(C)C[C@@H]1C(=O)N1CC2(CN(C(=O)c3cnn(Cc4ccccc4)c3)C[C@H]2C(=O)NC2CCCN(C(=O)c3ccccc3)C2)C1 (stereo partly shown) [I-59A]
IC50: > 10 µM

C[C@@H](OCC1CCCCC1)[C@H](NC(=O)[C@@H]1CN(C(=O)c2cnn(Cc3ccccc3)c2)CC12CN(C(=O)[C@H]1CC1(C)C)C2)C(=O)N1CCC(CN)CC1 [I-219]
IC50: 0.5 to 5 µM

CNC(=O)[C@@H](NC(=O)[C@@H]1CN(C(=O)c2cnc(C(F)(F)F)s2)CC12CN(C(=O)[C@H]1CC1(C)C)C2)[C@@H](C)OCC1CCCCC1 [I-161A]
IC50: > 10 µM

CC1(C)C[C@@H]1C(=O)N1CC2(CN(C(=O)c3cnn(Cc4ccccc4)c3)C[C@H]2C(=O)N[C@H]2CCCN(C(=O)c3ccccc3)C2)C1 [I-83A]
IC50: > 10 µM

CNC(=O)[C@@H](NC(=O)[C@H]1CN(C(=O)c2n[nH]c3ccccc23)CC12CN(C(=O)[C@H]1CC1(C)C)C2)[C@@H](C)OCc1ccccc1 [I-112B]
IC50: > 10 µM

C[C@@H](OCC1CCCCC1)[C@H](NC(=O)[C@@H]1CN(C(=O)c2cnn(Cc3ccccc3)c2)CC12CN(C(=O)[C@H]1CC1(C)C)C2)C(=O)N1CCC[C@@H](N)C1 [I-218]
IC50: 5 to 10 µM

COC(=O)[C@H](CO)NC(=O)[C@H]1CN(C(=O)c2cnn(Cc3ccccc3)c2)CC12CN(C(=O)[C@H]1CC1(C)C)C2 [I-209B]
IC50: > 10 µM

CNC(=O)[C@@H](NC(=O)[C@H]1CN(C(=O)c2cn[nH]c2)CC12CN(C(=O)CC1CC1)C2)[C@@H](C)OCc1ccccc1 [I-41B]
IC50: > 10 µM

CNC(=O)[C@@H](NC(=O)[C@@H]1CN(C(=O)c2cnn(Cc3ccccc3)c2)CC12CN(C(=O)CC1CC1)C2)[C@@H](C)OCC1CCCCC1 [I-56A]
IC50: > 10 µM

CNC(=O)[C@@H](NC(=O)[C@@H]1CN(C(=O)c2cn[nH]c2)CC12CN(C(=O)CC1CC1)C2)[C@@H](C)OCc1ccccc1 [I-41A, (S)—N-((2S,3R)-3-(benzyloxy)-1-(methylamino)-1-oxobutan-2-yl)-2-(2-cyclopropylacetyl)-6-(1H-pyrazole-4-carbonyl)-2,6-diazaspiro[3.4]octane-8-carboxamide]
IC50: > 10 µM

CNC(=O)[C@@H](NC(=O)[C@@H]1CN(C(=O)c2cnn(Cc3ccccc3)c2)CC12CN(C(=O)C1(CCF)CC1)C2)[C@@H](C)OCc1ccccc1 [I-117A]
IC50: > 10 µM

CC1(C)C[C@@H]1C(=O)N1CC2(CN(C(=O)c3cnn(Cc4ccccc4)c3)C[C@H]2C(=O)NC2CCN(C(=O)c3ccccc3)CC2)C1 [I-61A]
IC50: > 10 µM

C[C@@H](OCc1ccccc1)[C@H](NC(=O)C1CN(C(=O)c2cnn(Cc3ccccc3)c2)CC12CN(C(=O)[C@H]1CC1(C)C)C2)C(=O)NCC#CCO (stereo partly shown) [I-20]
IC50: > 10 µM

CNC(=O)[C@@H](NC(=O)[C@H]1CN(Cc2cncs2)CC12CN(C(=O)[C@H]1CC1(C)C)C2)[C@@H](C)OCc1ccccc1 [I-51B]
IC50: > 10 µM

CC1(C)C[C@@H]1C(=O)N1CC2(CN(C(=O)c3cnn(Cc4ccccc4)c3)C[C@H]2C(=O)N[C@H]2CCN(C3CC3)C2=O)C1 [I-243]
IC50: > 10 µM

CC1(C)C[C@@H]1C(=O)N1CC2(CN(C(=O)c3cnn(Cc4ccccc4)c3)C[C@H]2C(=O)N2CCN(CC3CCCCC3)CC2)C1 [I-237]
IC50: > 10 µM

CNC(=O)[C@@H](NC(=O)[C@H]1CN(C(=O)c2sc(C(C)C)nc2C)CC12CN(C(=O)[C@H]1CC1(C)C)C2)[C@@H](C)OCC1CCCCC1 [I-227B]
IC50: > 10 µM

COC(=O)[C@H](CO)NC(=O)[C@@H]1CN(C(=O)c2cnn(Cc3ccccc3)c2)CC12CN(C(=O)[C@H]1CC1(C)C)C2 [I-209A]
IC50: > 10 µM

CNC(=O)[C@@H](NC(=O)[C@H]1CN(C(=O)c2cnn(Cc3ccccc3)c2)CC12CN(C(=O)CC(C)(C)C)C2)[C@@H](C)OCc1ccccc1 [I-62B]
IC50: > 10 µM

CC1(C)C[C@@H]1C(=O)N1CC2(CN(C(=O)c3cnn(Cc4ccccc4)c3)C[C@@H]2C(=O)N[C@H]2C[C@@H]2c2cccc(Cl)c2)C1 [I-140B]
IC50: > 10 µM

CC1(C)C[C@@H]1C(=O)N1CC2(CN(C(=O)c3cnn(Cc4ccccc4)c3)C[C@H]2C(=O)NCc2nc3ccccc3o2)C1 [I-230]
IC50: > 10 µM

CNC(=O)[C@@H](NC(=O)[C@@H]1CN(C(=O)c2cncs2)CC12CN(C(=O)C(C)(C)C)C2)[C@@H](C)OCC1CCCCC1 [I-186A]
IC50: 0.5 to 5 µM

CC1(C)C[C@@H]1C(=O)N1CC2(CN(C(=O)c3cnn(Cc4ccccc4)c3)C[C@H]2C(=O)N2CCO[C@H](Cc3ccccc3)C2)C1 [I-255]
IC50: > 10 µM

CNC(=O)[C@@H](NC(=O)C1CN(Cc2n[nH]c3ccccc23)CC12CN(C(=O)[C@H]1CC1(C)C)C2)[C@@H](C)OCc1ccccc1 (stereo partly shown) [I-159]
IC50: > 10 µM

CCCCC1CC1C(=O)N1CC2(CN(C(=O)c3cnn(Cc4ccccc4)c3)C[C@H]2C(=O)N[C@H](C(=O)NC)[C@@H](C)OCc2ccccc2)C1 (stereo partly shown) [I-94A]
IC50: > 10 µM

CC1(C)C[C@@H]1C(=O)N1CC2(CN(C(=O)c3cnn(Cc4ccccc4)c3)C[C@H]2C(=O)Nc2cccc(Cc3ccccc3)c2)C1 [I-75A]
IC50: 0.5 to 5 µM

CNC(=O)[C@@H](NC(=O)[C@H]1CN(C(=O)c2cnc[nH]2)CC12CN(C(=O)[C@H]1CC1(C)C)C2)[C@@H](C)OCc1ccccc1 [I-44B]
IC50: > 10 µM

C[C@H](NC(=O)[C@@H]1CN(C(=O)c2cnn(Cc3ccccc3)c2)CC12CN(C(=O)[C@H]1CC1(C)C)C2)c1cccc(F)c1 [I-127A]
IC50: > 10 µM

C[C@@H](OCC1CCCCC1)[C@H](NC(=O)[C@@H]1CN(C(=O)c2ccn[nH]2)CC12CN(C(=O)[C@H]1CC1(C)C)C2)C(=O)N1CCCCC1 [I-216]
IC50: > 10 µM

CNC(=O)[C@@H](NC(=O)[C@H]1CN(C(=O)c2cnn(Cc3ccccc3)c2)CC12CN(C(=O)CC(F)(F)F)C2)[C@@H](C)OCc1ccccc1 [I-87B]
IC50: > 10 µM

CNC(=O)[C@@H](NC(=O)[C@H]1CN(C(=O)c2sc(COC)nc2C)CC12CN(C(=O)[C@H]1CC1(C)C)C2)[C@@H](C)OCC1CCCCC1 [I-162B]
IC50: > 10 µM

CNC(=O)[C@@H](NC(=O)[C@@H]1CN(C(=O)c2cnn(Cc3ccccc3)c2)CC12CN(C(=O)C1(C3CC3)CC1)C2)[C@@H](C)OCc1ccccc1 [I-114A]
IC50: > 10 µM

C[C@@H]1C[C@H](C)CN(C(=O)[C@@H](NC(=O)C2CN(C(=O)c3cnn(Cc4ccccc4)c3)CC23CN(C(=O)[C@H]2CC2(C)C)C3)[C@@H](C)OCc2ccccc2)C1 (stereo partly shown) [I-22]
IC50: 0.5 to 5 µM

CC1(C)C[C@@H]1C(=O)N1CC2(CN(C(=O)c3cnn(Cc4ccccc4)c3)C[C@H]2C(=O)N[C@H]2CCc3cc(Cl)ccc32)C1 [I-120A]
IC50: > 10 µM

CNC(=O)[C@@H](NC(=O)[C@H]1CN(C(=O)c2cnn(Cc3ccccc3)c2)CC12CN(C(=O)[C@H]1CC1(C)C)C2)[C@H](C)OCC1CCCCC1 [I-165]
IC50: > 10 µM

CNC(=O)[C@@H](NC(=O)[C@H]1CN(C(=O)c2cnn(Cc3ccccc3)c2)CC12CN(C(=O)CC1CC1)C2)[C@@H](C)OCC1CCCCC1 [I-56B]
IC50: > 10 µM

CNC(=O)[C@H](CS(=O)(=O)Cc1ccccc1)NC(=O)[C@@H]1CN(C(=O)c2cnn(Cc3ccccc3)c2)CC12CN(C(=O)[C@H]1CC1(C)C)C2 [I-226]
IC50: > 10 µM
